Laboratory results: patent US20050175555A1, “Polyunsaturated linear aldehydes and their derivatives with anti-radical and anti-tumoral activity” (priority 2002, published 2005)

Test system: UV-induced erythema
Assay: UV-induced erythema prevention test
Assay type: in vivo
Conditions: guinea pig ear, UV lamp 30 sec, 10% suspension topical, approx. 3 hours
Method: UV-induced erythema was caused by applying a UV lamp (Hanoivna Kramager) to the ear of a guinea pig for 30 sec; the lamp transmitted rays with a wavelength of […], which consequently included UV-B, UV-C and UV-A rays, through a special filter.
Excipients only or a suspension containing 5 or 10% 2,4,6,8,10,12,14-hexadecaheptaenol palmitate were spread on the ear of the test animals, and the temperature increase resulting from the UV-induced erythema was measured with a thermoelectric thermometer after approx. 3 hours in the control animals and the test animals.

Compound: CC=CC=CC=CC=CC=CC=CC=CCOC(=O)CCCCCCCCCCCCCCC [2,4,6,8,10,12,14-hexadecaheptaenyl palmitate]
- appearance of heat and erythema: inhibited
